Some test systems named below: MDA-MB-231 breast; HS 578T breast; T-47D breast; NCI/ADR-RES ovarian.
Holding throughout (test): NCI tumour cell line growth inhibition, 48 h

Values joined by “and” are separate entries in the source; they are usually repeats but may differ in a detail not shown here. Equal entries are not always repeated.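 Step 1: Grow cells in 96-well plates. Step 2: Expose to compound for 48 hours at 5 concentrations. Step 3: Interpolate endpoints linearly; if unreached, use highest concentration. GI50: concentration for 50% inhibition of growth. Definition used: TGI = concentration required for complete inhibition of growth.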

On to `CCOC(=O)C#Cc1c(CC(=O)OCC)nnn1[C@H]1O[C@@H](CO)[C@@H]2OC(C)(C)O[C@@H]21`, for which the GI50 in the assay with MDA-MB-231 breast is 4.62 µM; in the assay with HS 578T breast it was 25.9 µM; in the assay with T-47D breast, 2.78 µM; with NCI/ADR-RES ovarian it was 11.5 µM. In addition, the TGI was found to be 16.1 µM with MDA-MB-231 breast, 72.2 µM with HS 578T breast, 7.55 µM in the assay with T-47D breast and 36.5 µM in the assay with NCI/ADR-RES ovarian.
In the case of `Cc1nn(-c2nc3ccccc3[nH]2)c2c1C(c1ccc3c(c1)OCO3)CC(=O)N2` (stereo not drawn), the GI50 is 2.18 µM in the assay on MDA-MB-231 breast, 2.93 µM in the assay on HS 578T breast, 3.61 µM in the assay on T-47D breast and 4.43 µM in the assay with NCI/ADR-RES ovarian. For the same compound, the TGI in the assay with MDA-MB-231 breast was 5.22 µM; in the assay on HS 578T breast it was 13.5 µM; with T-47D breast, more than 39.6 µM; in the assay with NCI/ADR-RES ovarian it was more than 100 µM.
As to `COC(=O)[C@@H](C)C[C@H](Cc1ccccc1)NC(=O)c1csc([C@@H](C[C@H](C(C)C)N(C)C(=O)C2(NC(=O)[C@H]3CCCCN3C)CC2)OC(C)=O)n1`, the GI50 is 0.00681 µM and 0.00333 µM in the assay with MDA-MB-231 breast; 0.0191 µM with HS 578T breast; 0.00333 µM with T-47D breast; more than 33.3 µM with NCI/ADR-RES ovarian. Moreover, the results for the TGI with MDA-MB-231 breast, in the assay on T-47D breast and with NCI/ADR-RES ovarian were 4.36 µM, more than 33.3 µM and more than 33.3 µM, respectively.
For the compound `N#Cc1nc2cc(F)c(F)cc2nc1-c1ccc(Cl)cc1`, the TGI in the assay on MDA-MB-231 breast is 5.3 µM; in the assay on HS 578T breast, 4.43 µM; with T-47D breast, more than 62.1 µM; with NCI/ADR-RES ovarian, more than 81.1 µM. For the same compound, the GI50 is 1.72 µM in the assay with HS 578T breast, 20.9 µM in the assay on T-47D breast and 10.3 µM with NCI/ADR-RES ovarian.
On to `CCCCCCCCCCCC[n+]1ccc(C(N)=O)cc1`, for which the GI50 with MDA-MB-231 breast was 2.91 µM; in the assay with HS 578T breast it was 2.55 µM; in the assay with T-47D breast it was 3.06 µM; in the assay on NCI/ADR-RES ovarian it was more than 100 µM. The TGI with MDA-MB-231 breast was 10.9 µM; in the assay with HS 578T breast it was 8.49 µM; in the assay on T-47D breast, 11.8 µM; in the assay on NCI/ADR-RES ovarian it was more than 100 µM.
As for `OCCNCCNc1c2ccccc2nc2oc3ccccc3c12`, the GI50 in the assay on MDA-MB-231 breast was 10.3 µM; with HS 578T breast, 6.8 µM; in the assay on T-47D breast, 11.7 µM; with NCI/ADR-RES ovarian, 14.5 µM. The TGI in the assay on MDA-MB-231 breast was 37.5 µM; in the assay on HS 578T breast, 24.1 µM; in the assay on T-47D breast, 38.4 µM; with NCI/ADR-RES ovarian, 79.1 µM.
`CN(C)c1ccc(O)c2c1C[C@H]1C[C@H]3[C@H](N(C)C)C(=O)C(C(N)=O)=C(O)[C@@]3(O)C(=O)C1=C2O`: the GI50 with MDA-MB-231 breast is 10.5 µM; with HS 578T breast it was 3.36 µM; with T-47D breast, 5.29 µM; in the assay with NCI/ADR-RES ovarian it was 11.6 µM. The TGI with MDA-MB-231 breast was 43.6 µM; in the assay on HS 578T breast it was 34.2 µM; in the assay with T-47D breast it was more than 100 µM; in the assay with NCI/ADR-RES ovarian, more than 100 µM.
`N#CC1=C(N)Oc2c(sc3c(F)cccc23)C1c1ccc(F)cc1` (stereo not drawn): the GI50 in the assay with MDA-MB-231 breast is 1.44 µM; in the assay with HS 578T breast, 0.414 µM; in the assay on T-47D breast, 0.61 µM; in the assay on NCI/ADR-RES ovarian it was 0.375 µM. In addition, the TGI was determined as 11.5 µM in the assay with MDA-MB-231 breast, 11.4 µM with HS 578T breast, 26.9 µM in the assay with T-47D breast and 4.36 µM in the assay on NCI/ADR-RES ovarian.
With `CCCCCN(CCCCC)CC(O)c1cc2c(c3ccccc13)CCCC2` (stereo not drawn), the GI50 in the assay on MDA-MB-231 breast is 3.01 µM and 7.04 µM; in the assay on HS 578T breast, 8.51 µM; in the assay with T-47D breast, 3.04 µM and 7.77 µM; in the assay on NCI/ADR-RES ovarian, 6.44 µM and 12.3 µM. The TGI with MDA-MB-231 breast is 10.5 µM and 21.4 µM; with HS 578T breast it was 23.9 µM; with T-47D breast it was 14.2 µM and 25.7 µM; with NCI/ADR-RES ovarian, 20.1 µM and 27.5 µM.
Turning to `S=C(Nc1ccccc1)N(Cc1ccccc1)c1ccccc1`, the TGI with MDA-MB-231 breast, with HS 578T breast, with T-47D breast and in the assay with NCI/ADR-RES ovarian was more than 100 µM throughout.
For `OC(CNc1ccnc2cc(Cl)ccc12)CNC1CCCCC1` (stereo not drawn), the GI50 is 4.21 µM in the assay with MDA-MB-231 breast, 4.95 µM in the assay with HS 578T breast, 4.54 µM with T-47D breast and 18 µM in the assay on NCI/ADR-RES ovarian. For the same compound, the TGI is 18.7 µM with MDA-MB-231 breast, 23.8 µM with HS 578T breast, 18.7 µM in the assay with T-47D breast and 53.9 µM in the assay on NCI/ADR-RES ovarian.
`NCCCCN(Cc1nc2ccccc2[nH]1)[C@H]1CCCc2cccnc21`: the GI50 was 8.88 µM in the assay with MDA-MB-231 breast, 19 µM in the assay with HS 578T breast, 21.4 µM with T-47D breast and 26.8 µM in the assay with NCI/ADR-RES ovarian. In addition, the TGI with MDA-MB-231 breast was 56.3 µM; in the assay with HS 578T breast it was more than 91.4 µM; in the assay with T-47D breast it was more than 100 µM; in the assay on NCI/ADR-RES ovarian, more than 100 µM.
Take `O=C(N/N=C\c1ccc(N(CCCl)CCCl)cc1Cl)c1cccnc1`: the GI50 is 14.1 µM with MDA-MB-231 breast, 31.7 µM with HS 578T breast, 2.8 µM with T-47D breast and 19.6 µM in the assay on NCI/ADR-RES ovarian. Moreover, the TGI was 62.3 µM in the assay with MDA-MB-231 breast, more than 94 µM in the assay on HS 578T breast, 20 µM in the assay with T-47D breast and more than 94.3 µM in the assay with NCI/ADR-RES ovarian.
With `Oc1c(N=Nc2ccccc2)c2ccccc2c2ccc3ccccc3c12`, the TGI in the assay on MDA-MB-231 breast, in the assay on HS 578T breast, in the assay on T-47D breast and in the assay on NCI/ADR-RES ovarian was more than 100 µM in each case.
On to `C=C1C(=O)O[C@H]2[C@H]1CC/C(CNS(=O)(=O)c1cccc3ccccc13)=C\CC[C@@]1(C)O[C@@H]21`, for which the GI50 with MDA-MB-231 breast was 1.53 µM; in the assay with HS 578T breast it was 3.46 µM; in the assay with T-47D breast, 1.96 µM; in the assay on NCI/ADR-RES ovarian, 5.08 µM. In addition, the TGI worked out at 3.4 µM with MDA-MB-231 breast, 18.4 µM with HS 578T breast, 6.51 µM with T-47D breast and 20.6 µM in the assay with NCI/ADR-RES ovarian.
Consider `OC(CNC1CCCC1)Cn1c2ccccc2c2ccccc21` (stereo not drawn), for which the GI50 in the assay with MDA-MB-231 breast is 27.7 µM; in the assay with HS 578T breast it was 21.8 µM; in the assay with T-47D breast, 33.9 µM; in the assay on NCI/ADR-RES ovarian, 40.6 µM. The TGI in the assay with MDA-MB-231 breast is more than 100 µM; with HS 578T breast, 83.7 µM; in the assay with T-47D breast it was more than 100 µM; with NCI/ADR-RES ovarian, more than 100 µM.

The values are drawn from PubChem BioAssay (NCI).
